Consider four compounds from ChEMBL document CHEMBL6103652, “Niacin Ester Derivative of Brefeldin A as a Potential Dual-Target Arf1/BMX Inhibitor for Bladder Cancer” (J Nat Prod, 2025).

One data set has as its system HT-29. Nature of the data set: Antiproliferative activity against human HT-29 cells assessed as inhibition of cell proliferation measured after 72 hrs by MTT assay. The following applies: HT-29, 72 h. Type of data set: functional, cell-based. For orientation: Tetrazolium dyes change colour on reduction, which living cells bring about.
The subject of a further data set is L1210. Nature of the data set: Antiproliferative activity against mouse L1210 cells assessed as inhibition of cell proliferation measured after 72 hrs by MTT assay. It counts as functional, cell-based. The following applies: L1210, 72 h.
The test system of a further data set is A549. Nature of the data set: Antiproliferative activity against human A549 cells assessed as inhibition of cell proliferation measured after 72 hrs by MTT assay. The following applies: A549, 72 h. It counts as functional, cell-based.
A short description of data set [1]: Cytotoxicity against human LO2 cells measured after 72 hrs by MTT assay. It counts as toxicity, cell-based, L02.
The nature of data set [2]: Antiproliferative activity against […] MB49 cells assessed as inhibition of cell proliferation measured after 72 hrs by MTT assay. Type of data set: functional, cell-based. The settings on record: MB49, 72 h.
The subject of another data set is Huh-7. Briefly: Antiproliferative activity against human Huh-7 cells assessed as inhibition of cell proliferation measured after 72 hrs by MTT assay. It counts as functional, cell-based. The following applies: Huh-7, 72 h.
For a further data set, the system named is Bel-7402. Briefly: Antiproliferative activity against human Bel-7402 cells assessed as inhibition of cell proliferation measured after 72 hrs by MTT assay. It counts as functional, cell-based. The settings on record: Bel-7402, 72 h.
The test system of data set [3] is T-24. Nature of the data set: Antiproliferative activity against human T24 cells assessed as inhibition of cell proliferation measured after 72 hrs by MTT assay. It counts as functional, cell-based. The settings on record: T-24, 72 h.
The next data set relates to HCT-116. Nature of the data set: Antiproliferative activity against human HCT-116 cells assessed as inhibition of cell proliferation measured after 72 hrs by MTT assay. Type of data set: functional, cell-based. The following applies: HCT-116, 72 h.
Data set [4] concerns T-24. Briefly: Antiproliferative activity against human T24 cells assessed as inhibition of cell proliferation at 0.25 uM incubated for 72 to 120 hrs by MTT assay relative to control. Type of data set: functional. The settings on record: time 72-120 hrs.

For `C[C@H]1CCC/C=C/[C@@H]2C[C@H](O)C[C@H]2[C@H](O)/C=C/C(=O)O1` [BREFELDIN A], the IC50 (usually the concentration at which inhibition is half-maximal) in the data set with HT-29 was determined as 70 nM; in the data set with L1210, 1570 nM; in the data set on A549, 60 nM; in data set [2] it was 2160 nM; in the data set on Huh-7, 180 nM; in the data set on Bel-7402 it was 120 nM. Further, the IC50 in the data set on T-24 [3] was determined as 80 nM; with HCT-116, 100 nM. 140 nM corresponded to half-maximal inhibition in data set [1] (IC50 at 72 h).
Regarding `C[C@H]1CCC/C=C/[C@@H]2C[C@H](OC(=O)c3cccnc3)C[C@H]2[C@H](O)/C=C/C(=O)O1`, in the data set with T-24 [4], the inhibition (usually the change of the read-out against control, counted positive when it falls) at 0.25 µM was less than 40%.
The same measure, in the same setting: next, `C[C@H]1CCC/C=C/[C@@H]2C[C@H](OC(=O)c3cccnc3)C[C@H]2[C@H](OC(=O)c2cccnc2)/C=C/C(=O)O1`: less than 40%.
Regarding `COc1cccc2c1C(=O)c1c(O)c3c(c(O)c1C2=O)C[C@@](O)(C(=O)CO)C[C@@H]3O[C@H]1C[C@H](N)[C@H](O)[C@H](C)O1` [DOXORUBICIN], the IC50 in the data set with HT-29 is 420 nM; in the data set on L1210, less than 1000 nM; in the data set on A549, 440 nM; in [2] it was more than 1000 nM; in the data set on Huh-7, 620 nM; with T-24 [3] it was 250 nM. The IC50 in the data set on HCT-116 is less than 1000 nM.
